Measured values reported in patent US20110296540A1, “ASSAY FOR SCREENING ANTIDEPRESSANTS” (priority 2008, published 2011).
Where two headings read alike, the source gives them in different places.

What was measured:
[1] = target: T1, 5-HT1A autoreceptors (Mus musculus, UniProt Q64264); test: Whole cell recordings in the dorsal raphe, response to 5-HT1A agonist; type: cell-based; set-up: endogenous in cells; host or cells: Serotonergic neurons of the raphe nuclei in mice homozygous for tetO-1A with one copy of Pet-tTS; settings: 1A-High mice vs. 1A-Low mice; 100 nM
T1 sequence (Q64264 1-421): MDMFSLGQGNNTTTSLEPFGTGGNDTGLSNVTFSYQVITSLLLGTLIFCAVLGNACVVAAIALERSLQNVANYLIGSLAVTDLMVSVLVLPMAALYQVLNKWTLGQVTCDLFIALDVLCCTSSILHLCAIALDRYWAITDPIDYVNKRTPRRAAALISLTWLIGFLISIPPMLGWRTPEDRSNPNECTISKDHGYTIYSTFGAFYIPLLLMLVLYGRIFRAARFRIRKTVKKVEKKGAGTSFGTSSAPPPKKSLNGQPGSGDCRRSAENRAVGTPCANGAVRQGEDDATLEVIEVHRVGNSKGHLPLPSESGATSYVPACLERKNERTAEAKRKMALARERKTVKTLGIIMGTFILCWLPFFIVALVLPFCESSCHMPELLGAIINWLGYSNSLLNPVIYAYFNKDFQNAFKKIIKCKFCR
From the text: Downward deflections reflect spontaneous synaptic activity.
Much of this difference is accounted for by a smaller proportion of serotonergic neurons responding to the agonist challenge in the 1A-Low mice.

[2] = target: T1, 5-HT1A autoreceptors
Protocol: (A) 8-OH DPAT-induced hypothermia in 1A-High and 1A-Low mice. Following establishment of baseline body temperature, animals received IP injections of 0.1 mg/kg 8-OHDAPT, 0.5 mg/kg 8-OH DPAT, or saline (N=5/dose/group). Values are expressed as core temperature change from the last recorded baseline temperature.

[3] = system: tet0-1A homozygous mice that do not carry the tTS transgene; test: Control for the effects of doxycycline on baseline anxiety and depression-related behavior; type: in vivo; settings: transgene-negative littermates
From the text: FIGS. 27A-C Control for the effects of doxycycline on baseline anxiety and depression-related behavior.
(C) Likewise, no differences were detected in the forced swim test on either the first (i) or second (ii) day of testing (N=47).
This was accomplished using a novel bigenic system consisting of two parts: 1) insertion of the tet0 DNA regulatory element into the promoter region of the Htr1a gene, to create the tet0-1A allele and 2) raphe-specific expression of the tetracycline-dependent transcriptional suppressor (tTS) under the control of the previously characterized 540Z Pet-1 promoter fragment (P. M. Fisher et al., Nat Neurosci 9, 1362 (Nov., 2006)). […] Removal of doxycycline for four weeks beginning at postnatal day (PND) 50 creates an adult population of animals with lower expression of 5-HT1A autoreceptors (1A-Low) (FIG. 21b). Four weeks after doxycycline removal, suppression has reached maximal levels (data not shown).

[4] = system: C57BL/6Ntac mice; test: Open Field paradigm, chronic corticosterone model; type: in vivo; settings: 3-week antidepressant treatment in corticosterone-treated mice; imipramine 40, fluoxetine 18 mg/kg/day
From the text: The procedure described previously was used (Dulawa et al., 2004). Motor activity was quantified in four Plexiglas open field boxes 43 times 43 cm2 (MED Associates, Georgia, Vt.). Two sets of 16 pulse-modulated infrared photobeams were placed on opposite walls 2.5-cm apart to record x-y ambulatory movements. Activity chambers were computer interfaced for data sampling at 100-ms resolution. The computer defined grid lines that divided each Open Field into center and surround regions, with each of four lines being 11 cm from each wall. Dependent measures in the center were the total time and the number of entries over a 30-min period of test. The whole session was also divided in […] to analyze the time spent in the center every 5 min. The overall motor activity was quantified as the total distance traveled (cm) or distance traveled in the center divided by total distance traveled.
Mice were anesthetized with ketamine and xylazine (100 mg/ml ketamine; 20 mg/ml xylazine), placed in a stereotaxic frame and exposed to cranial irradiation using a Siemens Stabilopan X-ray system operated at 300 kVp and 20 mA. Animals were protected with a lead shield that covered the entire body, but left unshielded a 3.22×11-mm treatment field above the hippocampus (interaural 3.00 to 0.00) exposed to X-Ray. Dosimetry was done using a Capintec Model PR06G electrometer ionization chamber and Kodak Readypack Radiographic XV films. The corrected dose rate was approximately 1.8 Gy per min at a source to skin distance of 30 cm. The procedure lasted 2 min and 47 sec, delivering a total of 5 Gy. Three 5 Gy doses were delivered on days 1, 4 and 8.

[5] = system: HPA axis; test: Stress evoked increase of corticosterone levels; type: in vivo, mice; settings: acute swim stress; baseline conditions and after chronic corticosterone treatment
Protocol: Adult male C57BL/6Ntac mice were exposed to a 6 minutes swim stress. […]. Blood was collected into ice-chilled tubes containing EDTA and centrifuged at 3000 rpm for 10 min (at 4° C.) for separation of plasma, and plasma samples were stored at −80° C. until assayed. […]; Diagnostic Systems Laboratories, Inc. Webster, Tex.; sensitivity limit: 20 ng/ml). ACTH was measured directly in plasma using an ImmuChem™ Double Antibody hACTH 1251 RIA kit (No. 07-106101; MP Biomedicals, LLC, Orangeburg, N.Y.) with a sensitivity limit ˜5.7 pg/ml. All samples were measured simultaneously to reduce inter-assay variability.

[6] = system: C57BL/6Ntac mice; test: Forced Swim Test, chronic corticosterone model; type: in vivo; settings: for immobility duration (FST): mean±SEM

## NCCc1c[nH]c2ccc(C(N)=O)cc12 [5-CT]
[1]
  average current elicited by agonist challenge in serotonergic neurons: significantly higher

## CCCN(CCC)C1CCc2cccc(O)c2C1 (stereo not shown) [8-OH DPAT]
[2]; 1A-High mice, 0.1 and 0.5 mg/kg IP
  hypothermic response to 5-HT1A agonist challenge: robust and dose-dependent hypothermic response
[2]; 1A-High vehicle control mice, 0.5 mg/kg i.p.
  hypothermic response to 8-OH DPAT: robust hypothermic response
[2]; 1A-Low mice, detected only at the highest dose
  hypothermic response to 5-HT1A agonist challenge: attenuated response

## C[C@H]1c2cccc(O)c2C(=O)C2=C(O)[C@]3(O)C(=O)C(C(N)=O)=C(O)[C@@H](N(C)C)[C@@H]3[C@@H](O)[C@@H]21 [doxycycline]
[3]
  effect on behavioral measures (Open Field, Light/Dark choice test, forced swim test): no effect

## CN(C)CCCN1c2ccccc2CCc2ccccc21 [imipramine]
[4]
  corticosterone-induced anxiety phenotype in the Open Field (time and entries in the center): reversed
[5]
  stress induced corticosterone levels: had no effect
[6]; corticosterone treated animals, alone or with antidepressant
  immobility duration (FST): 296.8 s
[6]; non-corticosterone treated animals
  immobility duration (FST): 298.5 s
[6]; two-way ANOVA, corticosterone 7 weeks, antidepressants last 3 weeks
  duration of immobility (FST), effect: decreased
